US20180186755A1, “LYSYL OXIDASE-LIKE 2 INHIBITORS AND USES THEREOF” (PharmAkea, Inc., priority 2015, published 2018)
pIC50: −log10 of the molar value. Structures can show the parent of a compound that is named as a salt.

Target: T1, human LOXL2 (Homo sapiens, UniProt Q9Y4K0)
T1 construct: expressed in transfected cells; 10-20x concentrated conditioned media used as the enzyme source
T1 sequence (Q9Y4K0 26-774): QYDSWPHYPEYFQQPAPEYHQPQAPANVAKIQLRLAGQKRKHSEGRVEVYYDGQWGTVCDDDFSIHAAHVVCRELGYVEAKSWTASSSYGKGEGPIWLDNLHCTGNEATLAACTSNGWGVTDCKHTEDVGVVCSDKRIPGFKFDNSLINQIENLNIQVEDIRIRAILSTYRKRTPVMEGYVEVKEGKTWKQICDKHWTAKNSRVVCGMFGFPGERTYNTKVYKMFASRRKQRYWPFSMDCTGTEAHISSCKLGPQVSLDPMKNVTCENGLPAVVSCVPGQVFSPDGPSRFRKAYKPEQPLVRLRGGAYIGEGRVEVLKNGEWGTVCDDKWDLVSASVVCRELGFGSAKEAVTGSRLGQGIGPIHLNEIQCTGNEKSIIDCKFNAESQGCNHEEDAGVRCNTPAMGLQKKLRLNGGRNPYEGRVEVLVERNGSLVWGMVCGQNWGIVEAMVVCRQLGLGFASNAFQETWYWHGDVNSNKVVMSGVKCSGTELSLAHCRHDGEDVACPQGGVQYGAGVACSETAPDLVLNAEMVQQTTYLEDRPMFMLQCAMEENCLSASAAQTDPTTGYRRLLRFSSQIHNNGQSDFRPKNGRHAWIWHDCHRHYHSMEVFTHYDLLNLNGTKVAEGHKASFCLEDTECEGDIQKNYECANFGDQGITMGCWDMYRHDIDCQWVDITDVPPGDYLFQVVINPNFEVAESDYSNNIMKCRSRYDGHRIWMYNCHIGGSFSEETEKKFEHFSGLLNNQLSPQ
Test: Human LOXL2 amine oxidase activity assay (Amplex Red fluorescence)
Format: biochemical
Details: concentrated conditioned media from CHO cells stably expressing human LOXL2; 2 h at 37° C. preincubation; DAP substrate
Outline: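 Enzyme source: 10-20× concentrated conditioned media from CHO cells stably expressing human LOXL2, preincubated with compound for 2 h at 37° C in 50 mM borate pH 8. Reaction started with 1,5-diaminopentane plus Amplex Red/HRP; fluorescence (ex 544/em 590) read kinetically for 1 hour, activity from linear slope.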

Row | SMILES | pIC50
1 | NCc1cc(NCc2cccc(C(=O)NCc3cc4ccccc4s3)c2)ncn1 [Compound 1-97, 3-(((6-(Aminomethyl)pyrimidin-4-yl)amino)methyl)-N-(benzo[b]thiophen-2-ylmethyl)benzamide] | > 7.00
2 | NCc1cc(NCc2cccc(C(=O)Nc3ccccc3)c2)ncn1 [Compound 1-43, 3-(((6-(Aminomethyl)pyrimidin-4-yl)amino)methyl)-N-phenylbenzamide] | > 7.00
3 | NCc1cc(Oc2ccc3[nH]ccc3c2)ncn1 [Compound 1-18, (6-((1H-Indol-5-yl)oxy)pyrimidin-4-yl)methanamine trifluoroacetate] | > 7.00
4 | NCc1cc(N2CCN(C(=O)Cc3ccccc3)CC2)ncn1 [Compound 1-106, 1-(4-(6-(Aminomethyl)pyrimidin-4-yl)piperazin-1-yl)-2-phenylethanone] | 6.00 to 7.00
5 | NCc1cc(OCc2cccc(C(=O)Nc3ccccc3)c2)ncn1 [Compound 1-40, 3-(((6-(Aminomethyl)pyrimidin-4-yl)oxy)methyl)-N-phenylbenzamide] | > 7.00
6 | NCc1cc(OCc2cccc(C(=O)NCCN3CCOC3=O)c2)ncn1 [Compound 1-38, 3-(((6-(Aminomethyl)pyrimidin-4-yl)oxy)methyl)-N-(2-(2-oxooxazolidin-3-yl)ethyl)benzamide] | > 7.00
7 | NCc1cc(Oc2cccc3c2ccn3CCO)ncn1 [Compound 1-48, 2-(4-((6-(Aminomethyl)pyrimidin-4-yl)oxy)-1H-indol-1-yl)ethan-1-ol] | > 7.00
8 | NCc1cc(Oc2cccc3c2CCC(=O)N3CCO)ncn1 [Compound 1-15, (5-((6-(Aminomethyl)pyrimidin-4-yl)oxy)-1-(2-hydroxyethyl)-3,4-dihydroquinolin-2(1H)-one hydrochloride] | > 7.00
9 | NCc1cc(Oc2cccc(C(=O)Nc3ccccc3)c2)ncn1 [Compound 1-3, 3-((6-(Aminomethyl)pyrimidin-4-yl)oxy)-N-phenylbenzamide hydrochloride] | > 7.00
10 | NCc1cc(Oc2cccc(C(=O)Nc3ccc(C(=O)O)cc3)c2)ncn1 [Compound 1-4, 4-(3-((6-(Aminomethyl)pyrimidin-4-yl)oxy)benzamido)benzoic acid hydrochloride] | > 7.00
11 | NCc1cc(OCc2cccc(C(=O)NCc3nc4ccccc4o3)c2)ncn1 [Compound 1-83, 3-(((6-(Aminomethyl)pyrimidin-4-yl)oxy)methyl)-N-(benzo[d]oxazol-2-ylmethyl)benzamide] | > 7.00
12 | NCc1cc(Oc2cccc(C(=O)NCc3ccc(C(=O)O)cc3)c2)ncn1 [Compound 1-5, 4-((3-((6-(Aminomethyl)pyrimidin-4-yl)oxy)benzamido)methyl)benzoic Acid Hydrochloride] | > 7.00
13 | NCc1cc(Oc2cccc(C(=O)NCCCC(=O)O)c2)ncn1 [Compound 1-8, 4-(3-((6-(Aminomethyl)pyrimidin-4-yl)oxy)benzamido)butanoic Acid Hydrochloride] | 6.00 to 7.00
14 | C#C[C@@H](CC(=O)OC)NC(=O)c1cccc(Oc2cc(CN)ncn2)c1 [Compound 1-76, (R)-Methyl 3-(3-((6-(aminomethyl)pyrimidin-4-yl)oxy)benzamido)pent-4-ynoate] | > 7.00

Next, values leading:

Row | pIC50 | SMILES
15 | > 7.00 | NCc1cc(Oc2cccc(C(=O)N3CCN(c4ccccc4)CC3)c2)ncn1 [Compound 1-72, (3-((6-(Aminomethyl)pyrimidin-4-yl)oxy)phenyl)(4-phenylpiperazin-1-yl)methanone]
16 | > 7.00 | Cl.NCc1cc(Oc2cccc(C(=O)NCc3ccnc(Cl)c3)c2)ncn1 [Compound 1-55, 3-((6-(Aminomethyl)pyrimidin-4-yl)oxy)-N-((2-chloropyridin-4-yl)methyl)benzamide]
17 | > 7.00 | NCc1cc(OCc2cccc(C(=O)N3CCC(O)(C(F)(F)F)CC3)c2)ncn1 [Compound 1-94, (3-(((6-(Aminomethyl)pyrimidin-4-yl)oxy)methyl)phenyl)(4-hydroxy-4-(trifluoromethyl)piperidin-1-yl)methanone]
18 | > 7.00 | NCc1cc(Oc2cccc(C(=O)NCCO)c2)ncn1 [Compound 1-9, 3-((6-(Aminomethyl)pyrimidin-4-yl)oxy)-N-(2-hydroxyethyl)benzamide hydrochloride]
19 | > 7.00 | CC1(C)CCN(C(=O)c2cccc(Oc3cc(CN)ncn3)c2)CC1 [Compound 1-59, (3-((6-(Aminomethyl)pyrimidin-4-yl)oxy)phenyl)(4,4-dimethylpiperidin-1-yl)methanone]
20 | > 7.00 | NCc1cc(OCc2cccc(C(=O)N3CCN(c4ccccc4)CC3)c2)ncn1 [Compound 1-91, (3-(((6-(Aminomethyl)pyrimidin-4-yl)oxy)methyl)phenyl)(4-phenylpiperazin-1-yl)methanone]
21 | > 7.00 | NCc1cc(Oc2cccc(C(=O)N3CCN(c4ncc(Cl)cc4Cl)CC3)c2)ncn1 [Compound 1-73, (3-((6-(Aminomethyl)pyrimidin-4-yl)oxy)phenyl)(4-(3,5-dichloropyridin-2-yl)piperazin-1-yl)methanone]

System: bleomycin-induced lung fibrosis in C57Bl/6 male mice
Test: Mouse oropharyngeal bleomycin model of lung fibrosis
Format: in vivo
Details: dosed prophylactically at 60 mg/kg p.o.
Method: Example B-3: Mouse Oropharyngeal Bleomycin Model of Lung Fibrosis
Lung fibrosis is induced in C57Bl/6 male mice by administering bleomycin (0.1-4 U/kg) via oropharyngeal instillation. Mice are either pretreated with vehicle or test compound (1 day to 1 hour) orally, intraperitoneally, intravenously or subcutaneously before bleomycin installation (prophylactic dosing) or 7-14 days post bleomycin instillation (therapeutic dosing). The route and frequency of dosing are based on previously determined pharmacokinetic properties for the LOXL2 inhibitor in mouse. After bleomycin instillation animals are monitored daily for weight loss and clinical signs for 14-28 days prior to sacrifice. […] For histological examination, lung slices are stained with Masson's trichrome or Picro-Sirius red to measure cross-linked collagen as an indicator of fibrosis and an Ashcroft score of lung fibrotic and inflammatory damage determined. In addition, immunohistochemistry of fibrotic proteins such as a-smooth muscle actin can be recorded. […] After the acid hydrolysis, 25-100 μl of the supernatant is dried down, resuspended in 25 μl water and the hydroxyproline content determined by the addition of 0.5 ml Chloramine T solution (140 mg Chloramine T in 6.5 ml ddH20+1 ml n-propanol+2.5 ml 1M sodium acetate) and incubation at room temperature for 20 min. […]

Row | SMILES | efficacy in mouse oropharyngeal bleomycin model of lung fibrosis
22 | NCc1cc(Oc2cccc(C(=O)N3CCN(c4ccccc4)CC3)c2)ncn1 [Compound 1-72, (3-((6-(Aminomethyl)pyrimidin-4-yl)oxy)phenyl)(4-phenylpiperazin-1-yl)methanone] | efficacious
23 | Cl.NCc1cc(Oc2cccc(C(=O)NCc3ccnc(Cl)c3)c2)ncn1 [Compound 1-55, 3-((6-(Aminomethyl)pyrimidin-4-yl)oxy)-N-((2-chloropyridin-4-yl)methyl)benzamide] | efficacious
